# Reference: US4188398A, “Method for treating epilepsy” (priority 1978, dated 1980)
# Entries after “also recorded” stand apart in the source; their conditions may differ.
# Tests used:
# [1] = Duration of activity, maximum electroshock test; type: in vivo, white mice
# Description: Corazol convulsions and maximum electroshock tests were carried out to determine the duration of the preparation's activity. Two series of experiments were made on white mice weighing 20 to 25 g. In the first series, the preparation was introduced intraperitoneally, whereas in the second series it was introduced into the stomach through a metal probe.
# The anticonvulsive action of effective doses of the proposed preparation (200 mg/kg were introduced intraperitoneally, and 400 mg/kg were introduced per os) was tested every 30 minutes on separate groups of mice, each including 100 animals. The tests were continued until complete termination of the anticonvulsive effect.
# [2] = Mutagenicity, threonine locus of Bacillus coli; type: cell-based; details: bacillus coli, 0.2-mole concentration
# Description: The preparation was further studied with regard to the threonine locus of Bacillus coli at a 0.2-mole concentration; the object was subjected to treatment during 24 hours; the survival rate of the cells was between 42 and 91 percent.
# [3] = animal or person
# Description: The general effect of the proposed preparation was tested on white mice, rats and rabbits.
# [4] = Acute toxicity, single intraperitoneal administration, 48 hours (Litchfield and Wilcockson); type: in vivo, white mice
# Description: The acute toxicity of the proposed preparation was tested on white mice weighing 19 to 20 g, by single intraperitoneal administrations of 1.5- and 10-percent colloidal solutions of the anticonvulsant in a 0.5-percent solution of carboxymethyl cellulose. The animals were observed during 48 hours. In order to establish the median lethal dose (LD50), the experimental data was statistically processed using the Litchfield and Wilcockson techniques. Milontin and zarontin were analyzed in the same way.
# [5] = Electroencephalographic study of threshold and afteraction discharges, curarized animals; type: in vivo, cats and rabbits; details: 150 to 200 mg/kg
# Description: The central action of the preparation was studied electroencephalographically. The acute experiments were conducted on curarized cats and rabbits and were aimed at investigating the effects of the preparation upon the threshold magnitude and the duration of afteraction discharges of the dorsal hippocamp, […] nuclei of the thalamus and the motor zone of the cortex.
compound,measurement,setting,value
"CC(C)Oc1ccc(C2CC(=O)NC2=O)cc1 (stereo not drawn) [proposed preparation, α-/para-isopropoxyphenyl/succinimide]",time for which effect is maintained at its peak,[1]; maximum electroshock,seven
same,"duration of effect, oral versus intraperitoneal",[1]; maximum electroshock test,lasts longer in the case of oral administration
same,"fold induction at 24 h, 200000 µM",[2]; read-out: revertants relative to control (spontaneous mutation),1.8
same,"viability at 24 h, 200000 µM",[2]; read-out: survival rate of the cells,42 to 91%
same,minimal effective dose,"[3]; Mus musculus, ip, read-out: least dose to produce a noticeable effect on the animals' behavior",200 mg/kg
same,effect on general state of the animals per os versus intraperitoneal,"[3]; per os, animals (mice, rats, rabbits)",not as marked as in the case of intraperitoneal administration
same,dose inducing lying position and sleep,"[3]; white mice, intraperitoneal","more than 1,000 milligrams per kilogram of weight"
same,relative toxicity,[4]; compared with milontin and zarontin,the least toxic of all; also recorded: more than two times less toxic than milontin; also recorded: one and half times less toxic than zarontin
same,LD50,"[4]; intraperitoneal, white mice, P=0.05, 2880 min, listed as Preparation in accordance with invention","2,150 (1,930 to 2,390) mg/kg"
same,LD50 at 48 h,"[4]; mouse, in vivo, ip, intraperitoneal, white mice, P=0.05",2150 mg/kg
same,afteraction discharges of the thalamic nuclei,[5],prevented afteraction discharges of the thalamic nuclei
same,convulsion threshold of the hippocamp,[5],slightly raised the convulsion threshold of the hippocamp
same,period of discharges in the cortex,[5],considerably reduces the period of discharges in the cortex
same,spread of convulsive activity to other brain structures,[5],prevents the spread of the convulsive activity to other brain structures
same,stimulation threshold of the motor zone of the cortex,[5],does not raise the stimulation threshold of the motor zone of the cortex
